Reference: patent US11207431B2, “HDAC6 inhibitors and imaging agents” (The General Hospital Corporation, priority 2017, dated 2021)
pIC50: −log10 of the molar value. Where two headings read alike, the source gives them in different places.

Assays:
[1] = target: T1, HDAC1 (Homo sapiens (Human), UniProt Q13547); experiment: IC50 values of comparison compounds B-F (Table 1B); assay type: biochemical; conditions: comparison compound C, source not stated
Description: (§1) [drawing 62] (see e.g., WO 2015/058106; Fluorescent-intensity-based enzymatic assay, multiple runs; duplicates);

[2] = target: T2, HDAC10 (Homo sapiens (Human), UniProt Q969S8); experiment: IC50 values of comparison compounds B-F (Table 1B); assay type: biochemical; conditions: comparison compound C, source not stated
Description: as §1
Target sequence in this assay (Q969S8 whole entry, species assumed): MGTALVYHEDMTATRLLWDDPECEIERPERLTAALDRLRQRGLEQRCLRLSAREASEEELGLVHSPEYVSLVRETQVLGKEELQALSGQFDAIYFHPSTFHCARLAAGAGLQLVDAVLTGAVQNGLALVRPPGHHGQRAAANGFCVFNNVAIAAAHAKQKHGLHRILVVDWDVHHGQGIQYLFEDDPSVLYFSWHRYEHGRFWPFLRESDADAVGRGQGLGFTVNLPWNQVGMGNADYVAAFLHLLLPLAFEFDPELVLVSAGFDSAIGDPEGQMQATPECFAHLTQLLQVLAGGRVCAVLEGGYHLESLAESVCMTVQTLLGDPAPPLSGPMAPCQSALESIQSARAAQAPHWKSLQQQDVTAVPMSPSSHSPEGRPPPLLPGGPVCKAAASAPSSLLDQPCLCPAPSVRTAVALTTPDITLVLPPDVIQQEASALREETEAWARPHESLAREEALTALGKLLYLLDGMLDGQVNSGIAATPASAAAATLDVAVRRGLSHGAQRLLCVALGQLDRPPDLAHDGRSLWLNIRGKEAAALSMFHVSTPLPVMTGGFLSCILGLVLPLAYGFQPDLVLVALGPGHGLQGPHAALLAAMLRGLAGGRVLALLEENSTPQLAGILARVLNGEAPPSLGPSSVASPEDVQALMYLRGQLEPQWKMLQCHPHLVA

[3] = target: T3, HDAC11 (Homo sapiens (Human), UniProt Q96DB2); experiment: IC50 values of comparison compounds B-F (Table 1B); assay type: biochemical; conditions: comparison compound C, source not stated
Description: as §1
Target sequence in this assay (Q96DB2 whole entry, species assumed): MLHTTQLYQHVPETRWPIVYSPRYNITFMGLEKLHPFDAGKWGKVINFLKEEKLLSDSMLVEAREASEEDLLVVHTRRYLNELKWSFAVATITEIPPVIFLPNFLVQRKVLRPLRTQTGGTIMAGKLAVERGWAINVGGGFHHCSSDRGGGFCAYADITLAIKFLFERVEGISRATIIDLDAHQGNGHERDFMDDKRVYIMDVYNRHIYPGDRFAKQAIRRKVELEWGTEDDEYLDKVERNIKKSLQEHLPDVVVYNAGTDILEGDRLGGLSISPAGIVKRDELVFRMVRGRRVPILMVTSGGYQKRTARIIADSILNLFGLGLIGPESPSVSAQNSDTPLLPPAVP

[4] = target: T4, HDAC2 (Homo sapiens (Human), UniProt Q92769); experiment: IC50 values of comparison compounds B-F (Table 1B); assay type: biochemical; conditions: comparison compound C, source not stated
T4 sequence (Q92769 whole entry): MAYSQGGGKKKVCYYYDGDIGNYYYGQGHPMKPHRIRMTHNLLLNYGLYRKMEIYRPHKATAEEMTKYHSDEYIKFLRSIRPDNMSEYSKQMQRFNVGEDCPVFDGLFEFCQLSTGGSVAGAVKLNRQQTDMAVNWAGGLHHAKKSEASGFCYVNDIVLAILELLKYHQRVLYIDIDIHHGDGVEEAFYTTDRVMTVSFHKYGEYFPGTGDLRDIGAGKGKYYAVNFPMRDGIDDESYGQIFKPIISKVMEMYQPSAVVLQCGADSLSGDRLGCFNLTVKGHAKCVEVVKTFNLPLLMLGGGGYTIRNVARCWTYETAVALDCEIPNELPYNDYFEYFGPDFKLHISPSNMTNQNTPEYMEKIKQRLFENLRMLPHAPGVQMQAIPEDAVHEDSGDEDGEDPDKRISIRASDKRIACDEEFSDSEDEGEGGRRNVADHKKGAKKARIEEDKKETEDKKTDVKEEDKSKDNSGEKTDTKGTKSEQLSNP
Description: as §1

[5] = target: T5, HDAC3 (Homo sapiens (Human), UniProt O15379); experiment: IC50 values of comparison compounds B-F (Table 1B); assay type: biochemical; conditions: comparison compound C, source not stated
T5 sequence (O15379 whole entry): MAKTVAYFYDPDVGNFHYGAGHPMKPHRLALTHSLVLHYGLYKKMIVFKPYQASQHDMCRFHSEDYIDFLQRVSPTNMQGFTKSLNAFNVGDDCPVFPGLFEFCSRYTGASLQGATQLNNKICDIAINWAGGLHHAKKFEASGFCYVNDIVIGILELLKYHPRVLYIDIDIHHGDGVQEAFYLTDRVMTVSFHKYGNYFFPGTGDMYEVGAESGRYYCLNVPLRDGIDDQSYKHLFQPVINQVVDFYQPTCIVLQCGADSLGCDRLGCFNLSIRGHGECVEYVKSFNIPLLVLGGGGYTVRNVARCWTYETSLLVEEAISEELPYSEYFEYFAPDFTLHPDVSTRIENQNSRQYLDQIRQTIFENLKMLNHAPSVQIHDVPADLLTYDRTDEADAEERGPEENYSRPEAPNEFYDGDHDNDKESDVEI
T5 sequence (Q9Y618 395-489 partner): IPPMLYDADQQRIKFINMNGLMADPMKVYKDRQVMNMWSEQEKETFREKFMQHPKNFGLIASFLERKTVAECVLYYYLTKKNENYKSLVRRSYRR
Description: as §1

[6] = target: T6, HDAC4 (Homo sapiens (Human), UniProt P56524); experiment: IC50 values of comparison compounds B-F (Table 1B); assay type: biochemical; conditions: comparison compound C, source not stated
Description: as §1

[7] = target: T7, HDAC5 (Homo sapiens (Human), UniProt Q9UQL6); experiment: IC50 values of comparison compounds B-F (Table 1B); assay type: biochemical; conditions: comparison compound C, source not stated
T7 sequence (Q9UQL6 whole entry): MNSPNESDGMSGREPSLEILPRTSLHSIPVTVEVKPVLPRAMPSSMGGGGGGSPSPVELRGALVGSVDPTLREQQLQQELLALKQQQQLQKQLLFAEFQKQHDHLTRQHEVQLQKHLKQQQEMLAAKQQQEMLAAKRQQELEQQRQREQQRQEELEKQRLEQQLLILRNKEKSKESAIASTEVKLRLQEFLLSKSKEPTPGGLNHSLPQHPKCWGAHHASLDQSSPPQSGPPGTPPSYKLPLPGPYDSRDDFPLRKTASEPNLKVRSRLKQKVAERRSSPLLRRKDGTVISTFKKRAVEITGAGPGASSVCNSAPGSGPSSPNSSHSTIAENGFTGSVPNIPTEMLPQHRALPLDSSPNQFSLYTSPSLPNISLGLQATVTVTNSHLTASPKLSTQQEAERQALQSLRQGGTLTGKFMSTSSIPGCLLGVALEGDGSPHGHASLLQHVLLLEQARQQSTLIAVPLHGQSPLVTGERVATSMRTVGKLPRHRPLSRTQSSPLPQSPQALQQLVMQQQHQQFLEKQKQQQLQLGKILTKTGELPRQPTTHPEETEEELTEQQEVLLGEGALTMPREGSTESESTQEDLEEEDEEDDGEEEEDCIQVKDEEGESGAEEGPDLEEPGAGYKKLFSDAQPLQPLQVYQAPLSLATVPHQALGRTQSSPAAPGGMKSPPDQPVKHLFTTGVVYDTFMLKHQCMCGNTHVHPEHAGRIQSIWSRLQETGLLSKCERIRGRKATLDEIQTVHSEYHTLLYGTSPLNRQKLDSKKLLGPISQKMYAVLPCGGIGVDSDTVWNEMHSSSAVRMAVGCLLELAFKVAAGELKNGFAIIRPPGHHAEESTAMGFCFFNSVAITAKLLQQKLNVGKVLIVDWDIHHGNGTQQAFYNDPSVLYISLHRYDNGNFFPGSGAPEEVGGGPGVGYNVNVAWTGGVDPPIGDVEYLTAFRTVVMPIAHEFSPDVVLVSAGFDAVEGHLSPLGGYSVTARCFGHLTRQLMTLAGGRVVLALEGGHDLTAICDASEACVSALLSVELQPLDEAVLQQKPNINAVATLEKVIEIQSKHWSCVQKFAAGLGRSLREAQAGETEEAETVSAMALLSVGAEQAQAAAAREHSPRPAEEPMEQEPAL
Description: as §1

[8] = target: T8, HDAC8 (Homo sapiens (Human), UniProt Q9BY41); experiment: IC50 values of comparison compounds B-F (Table 1B); assay type: biochemical; conditions: comparison compound C, source not stated
Description: as §1

[9] = target: T9, HDAC9 (Homo sapiens (Human), UniProt Q9UKV0); experiment: IC50 values of comparison compounds B-F (Table 1B); assay type: biochemical; conditions: comparison compound C, source not stated
Description: as §1

[10] = target: T10, HDAC6 (Homo sapiens (Human), UniProt Q9UBN7); conditions: read-out: HDAC6 IC50; comparison compound C, source not stated
T10 sequence (Q9UBN7 whole entry): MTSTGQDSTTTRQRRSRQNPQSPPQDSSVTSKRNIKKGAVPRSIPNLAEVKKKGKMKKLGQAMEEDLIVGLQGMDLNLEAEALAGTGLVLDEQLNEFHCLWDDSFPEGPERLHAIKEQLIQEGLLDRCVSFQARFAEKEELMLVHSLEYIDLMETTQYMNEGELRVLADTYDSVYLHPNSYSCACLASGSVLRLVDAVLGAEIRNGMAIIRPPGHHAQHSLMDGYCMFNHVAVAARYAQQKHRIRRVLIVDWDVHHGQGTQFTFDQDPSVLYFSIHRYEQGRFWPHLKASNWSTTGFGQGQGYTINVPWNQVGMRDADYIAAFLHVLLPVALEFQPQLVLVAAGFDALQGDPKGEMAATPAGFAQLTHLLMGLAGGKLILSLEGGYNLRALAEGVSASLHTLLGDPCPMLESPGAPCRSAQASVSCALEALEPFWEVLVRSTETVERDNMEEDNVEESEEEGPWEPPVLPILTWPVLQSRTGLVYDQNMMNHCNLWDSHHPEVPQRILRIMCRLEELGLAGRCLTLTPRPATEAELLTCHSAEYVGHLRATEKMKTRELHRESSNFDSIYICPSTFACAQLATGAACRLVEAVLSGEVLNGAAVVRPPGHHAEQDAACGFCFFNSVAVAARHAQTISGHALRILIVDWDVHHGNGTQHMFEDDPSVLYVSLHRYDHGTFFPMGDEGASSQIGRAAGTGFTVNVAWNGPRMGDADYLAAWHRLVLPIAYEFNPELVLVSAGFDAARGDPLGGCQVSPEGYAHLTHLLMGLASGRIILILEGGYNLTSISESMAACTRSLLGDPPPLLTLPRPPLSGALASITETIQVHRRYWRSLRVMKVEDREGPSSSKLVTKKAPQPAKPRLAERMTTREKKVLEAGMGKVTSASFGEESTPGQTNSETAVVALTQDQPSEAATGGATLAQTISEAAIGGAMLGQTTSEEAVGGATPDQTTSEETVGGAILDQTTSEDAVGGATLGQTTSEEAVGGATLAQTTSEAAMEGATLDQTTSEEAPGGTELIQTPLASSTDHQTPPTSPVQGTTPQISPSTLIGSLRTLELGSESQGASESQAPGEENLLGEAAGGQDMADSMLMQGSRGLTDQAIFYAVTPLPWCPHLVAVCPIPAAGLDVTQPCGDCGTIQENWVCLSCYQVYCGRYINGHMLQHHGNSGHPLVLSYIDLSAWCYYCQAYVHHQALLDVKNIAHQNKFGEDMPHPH

[11] = target: T1, HDAC1; experiment: IC50 assay, BPS Biosciences fluorescence assay; assay type: biochemical
[12] = target: T4, HDAC2; experiment: IC50 assay, BPS Biosciences fluorescence assay; assay type: biochemical
[13] = target: T5, HDAC3; experiment: IC50 assay, BPS Biosciences fluorescence assay; assay type: biochemical
[14] = target: T2, HDAC10; experiment: IC50 assay, BPS Biosciences fluorescence assay; assay type: biochemical
Target sequence in this assay (Q969S8 whole entry): as the sequence (Q969S8 whole entry, species assumed) above

[15] = target: T1, HDAC1; experiment: IC50 assay by Nanosyn (Caliper microfluidics mobility shift detection); assay type: biochemical; conditions: IC50 measured by Nanosyn
Experimental: (§2) IC50 measurements were conducted by BPS Biosciences (Table 1) or by Nanosyn (Table 1A) with an established fluorescence assay. […] A=Martinostat (Caliper (microfluidics mobility shift detection) by Nanosyn (same run, duplicates));

[16] = target: T2, HDAC10; experiment: as above; assay type: biochemical; conditions: IC50 measured by Nanosyn
Experimental: as §2
Target sequence in this assay (Q969S8 whole entry): as the sequence (Q969S8 whole entry, species assumed) above

[17] = target: T4, HDAC2; experiment: as above; assay type: biochemical; conditions: IC50 measured by Nanosyn
Experimental: as §2

[18] = target: T5, HDAC3; experiment: as above; assay type: biochemical; conditions: IC50 measured by Nanosyn
Experimental: as §2

[19] = Brain penetrance comparison; conditions: in vivo
[20] = system: Human iPSC-derived neural progenitor cells; experiment: Acetylation level assay (Western blot); assay type: cell-based; conditions: 6 h at 37° C.
[21] = target: HDAC6 (Rattus norvegicus (Rat), UniProt A0A8I6GM68); experiment: Autoradiography competition with radiolabeled Example 2 on rat brain slices; assay type: binding, Sprague-Dawley rat; conditions: blocking compound at 1 μM
Experimental: Sagittal slices of Sprague-Dawley rat brains were sectioned (10 μm) with a cryostat (Thermo Scientific HM550) and mounted onto ColorFrost Plus microscope slides (Fisher Scientific 12-550-18) and stored at −20° C. […] After 15 min, 50 μCi of the radiolabeled compound of Example 2 was added to each bath. After 15 minutes, all slides were washed by dipping 10× into buffer and subsequently submerged in 50 mL baths of buffer at 4° C. for 5 minutes. The slides were dried at 35° C. in a vacuum chamber. A phosphorus screen (Perkin Elmer 7001723) was exposed with the slides for 45 minutes and subsequently imaged with a Cyclone Plus Storage Phosphor (Perkin Elmer) detector. ImageJ was used to apply a Gaussian blur (3.0 radius) smoothing and a lookup table (Royal) with equivalent thresholds for brightness was applied. Raw intensity values from gray and white matter were quantified with the ImageJ measurement tool.

[22] = PET/CT imaging in rats; assay type: in vivo, Sprague-Dawley rats
Experimental: 8 male Sprague-Dawley rats (Charles River Laboratories) were used for PET imaging. […] For intravenous administration, a catheter with an extension line was placed in a lateral tail vein. Each animal received a bolus injection of either vehicle (1:1:8 DMSO/Tween80/saline) or blocking agent in solution (1 mg/kg, 1 mg/mL in 1:1:8 DMSO/Tween80/saline) immediately prior to injection of the radiotracer.
After injection of a radiotracer bolus ([…] Example 2) a 90 min dynamic PET scan was acquired in pairs for all animals. PET scans were performed on a GammaMedica Triumph PET/CT/SPECT scanner, corrected for attenuation with a μ-map derived from the corresponding CT image, which was acquired immediately following the PET scan. The dynamic PET data was binned into 38 timeframes (8×15 s, 8×1 min, 10×2 min, 12×5) and reconstructed individually via an iterative MLEM (maximum likelihood expectation maximization) algorithm in 16 iterations.
PET images were to the CT image acquired from the same animal using AMIDE Data sets were cropped and all further image analysis was conducted using PMOD 3.3 (PMOD Technologies, Zurich, Switzerland). For maximum consistency, the data were coregistered to the Schiffer Px Rat rat brain template and data was derived from a whole brain VOI (volumes of interest) for time activity curves.

[23] = male, C57BL/6, mouse, in vivo, po, 5 mg/kg
[24] = in vivo; conditions: C57BL/6, mouse
[25] = in vitro; conditions: rat, microsomes
[26] = in vitro; conditions: mouse, microsomes
[27] = Microsome stability; conditions: human, microsomes
[28] = Hepatocyte stability; conditions: human, hepatocytes
[29] = system: DiscoverX Safety47 panel: 24 GPCRs, 2 nuclear hormone receptors, 3 neurotransmitter transporters, 8 ion channels, 4 kinases, 6 other enzymes; experiment: Safety (DiscoverX Safety47 Panel); conditions: at 10 μM; 78 assays
[30] = target: T6, HDAC4; experiment: IC50 assay, BPS Biosciences fluorescence assay; assay type: biochemical
[31] = target: T7, HDAC5; experiment: IC50 assay, BPS Biosciences fluorescence assay; assay type: biochemical
[32] = target: T10, HDAC6; experiment: IC50 assay, BPS Biosciences fluorescence assay; assay type: biochemical
[33] = target: T11, HDAC7 (Homo sapiens (Human), UniProt Q8WUI4); experiment: IC50 assay, BPS Biosciences fluorescence assay; assay type: biochemical
[34] = target: T8, HDAC8; experiment: IC50 assay, BPS Biosciences fluorescence assay; assay type: biochemical
[35] = target: T9, HDAC9; experiment: IC50 assay, BPS Biosciences fluorescence assay; assay type: biochemical
[36] = target: T3, HDAC11; experiment: IC50 assay, BPS Biosciences fluorescence assay; assay type: biochemical
Target sequence in this assay (Q96DB2 whole entry): as the sequence (Q96DB2 whole entry, species assumed) above

[37] = target: T6, HDAC4; experiment: IC50 assay by Nanosyn (Caliper microfluidics mobility shift detection); assay type: biochemical; conditions: IC50 measured by Nanosyn
[38] = target: T7, HDAC5; experiment: as above; assay type: biochemical; conditions: IC50 measured by Nanosyn
[39] = target: T10, HDAC6; experiment: as above; assay type: biochemical; conditions: IC50 measured by Nanosyn
[40] = target: T11, HDAC7; experiment: as above; assay type: biochemical; conditions: IC50 measured by Nanosyn
[41] = target: T8, HDAC8; experiment: as above; assay type: biochemical; conditions: IC50 measured by Nanosyn
[42] = target: T9, HDAC9; experiment: as above; assay type: biochemical; conditions: IC50 measured by Nanosyn
[43] = target: T3, HDAC11; experiment: as above; assay type: biochemical; conditions: IC50 measured by Nanosyn
Target sequence in this assay (Q96DB2 whole entry): as the sequence (Q96DB2 whole entry, species assumed) above

[44] = BPS Biosciences fluorescence assay

T1 sequence (Q13547 whole entry): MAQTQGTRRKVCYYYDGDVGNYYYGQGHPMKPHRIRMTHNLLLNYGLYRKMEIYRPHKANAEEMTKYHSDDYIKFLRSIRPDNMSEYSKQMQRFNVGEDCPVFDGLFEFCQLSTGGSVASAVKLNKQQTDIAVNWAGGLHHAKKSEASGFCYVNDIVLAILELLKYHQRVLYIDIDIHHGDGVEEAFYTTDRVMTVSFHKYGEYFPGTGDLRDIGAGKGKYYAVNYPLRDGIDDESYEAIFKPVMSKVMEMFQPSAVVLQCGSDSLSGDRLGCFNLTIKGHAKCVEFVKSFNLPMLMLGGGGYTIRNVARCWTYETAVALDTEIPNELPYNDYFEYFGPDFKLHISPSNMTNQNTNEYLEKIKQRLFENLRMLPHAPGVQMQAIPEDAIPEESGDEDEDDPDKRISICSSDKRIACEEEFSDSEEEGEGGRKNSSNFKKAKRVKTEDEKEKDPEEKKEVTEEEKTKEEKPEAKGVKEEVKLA

CN(c1ncc(C(=O)NO)cn1)C12CC3CC(CC(C3)C1)C2 [C]
pIC50 [1]: 7.70 | pIC50 [2]: 7.60 | pIC50 [3]: 5.44 | pIC50 [4]: 7.19 | pIC50 [5]: 7.62 | pIC50 [6]: 7.47 | pIC50 [7]: 6.92 | pIC50 [8]: 6.44 | pIC50 [9]: 7.28 | pIC50 [10]: 7.48

CN(Cc1ccc(C(=O)NO)cc1F)CC12CC3CC(CC(C3)C1)C2 [Example 1, 4-(((((3s)-Adamantan-1-yl)methyl)(methyl)amino)methyl)-3-fluoro-N-hydroxybenzamide]
pIC50 ([11]; IC50 measured by BPS): < 6.00 | pIC50 ([12]; IC50 measured by BPS): < 6.00 | pIC50 ([13]; IC50 measured by BPS): < 6.00 | IC50 ([14]; BPS Biosciences, unit mM printed in cell): > 1000 µM | pIC50 ([14]; IC50 measured by BPS): < 6.00 | inhibition at 1000 µM ([14]; read-out: HDAC10 Percentage Inhibition): 21% | pIC50 [15]: < 6.00 | pIC50 [16]: < 6.00 | pIC50 [17]: < 6.00 | pIC50 [18]: < 6.00 | Brain-penetrant? [19]: +++ | Histone acetylation (H3K9 and H4K12) ([20]; 10 μM): remained unaltered | amount of cellular acetyl-α-Tubulin ([20]; ACY1215 5 μM, other compounds 10 μM): increased | binding of radiolabeled Example 2 to rat brain slices [21]: significantly reduced | effect on time activity curve of radiolabeled Example 2 ([22]; 1 mg/kg, 30-minutes post radiotracer administration): clear deflection of the time activity curve | effect on brain uptake of radiolabeled Example 2 ([22]; non-radioactive compound at 1 mg/kg): blocking of brain uptake | T1/2 [23]: 15 min | bioavailability ([24]; po): 10% | half-life ([24]; male, ip, 5 mg/kg): 4.8 min | half-life ([24]; male, po, 5 mg/kg): 15 min | Cmax ([24]; male, po, 5 mg/kg, Cmax): 460 nM | half-life [25]: < 10 min | half-life [26]: < 10 min | half-life [27]: 19 min | half-life [28]: 20 min | Safety (DiscoverX Safety47 Panel) [29]: No effect at 10 μM

CN(Cc1ccc(/C=C/C(=O)NO)cc1)CC12CC3CC(CC(C3)C1)C2 [Martinostat, martinostat]
pIC50 [11, 44]: 8.21 | pIC50 [12, 44]: 7.66 | pIC50 [13, 44]: 8.15 | pIC50 [30, 44]: < 6.00 | inhibition at 1 µM ([30]; at 1 μM, BPS Biosciences, read-out: HDAC4 Percentage Inhibition): 39% | pIC50 [31]: 6.01 | pIC50 [32]: 7.32 | pIC50 [33]: < 6.00 | pIC50 [34]: < 6.00 | pIC50 [35, 44]: < 6.00 | inhibition at 1 µM ([35]; at 1 μM, BPS Biosciences, read-out: HDAC9 Percentage Inhibition): 12% | pIC50 [14, 44]: 8.05 | pIC50 [36, 44]: < 6.00 | inhibition at 1 µM ([36]; at 1 μM, BPS Biosciences, read-out: HDAC11 Percentage Inhibition): 17% | pIC50 [37]: 6.62 | pIC50 [38]: 7.12 | pIC50 [39]: 8.74 | pIC50 [40]: < 6.00 | pIC50 [41]: 6.12 | pIC50 [42]: < 6.00 | pIC50 [15]: 8.92 | pIC50 [16]: 8.70 | pIC50 [17]: 8.40 | pIC50 [18]: 9.52 | pIC50 [43]: < 6.00
